Data set [1] has as its system U87-MG/eGFP-fLuc cells. Briefly: Annexin-V-APC binding (apoptosis positive control), fluorescence microscopy. The format is cell-based, human. To be noted: 21 μM, positive control for apoptosis, TTFields-unexposed. As for the experimental part: To test if the imposition of TTFields affects cell membrane properties, and thus membrane permeability, the effect of TTFields on the behavior of fluorescently tagged reagents that bind to the cellular membrane was determined. Initially, the impact of TTFields on the binding of Annexin-V-APC to the membrane of U87-MG/eGFP-fLuc cells was measured. Annexin-V-APC binding is a signature of early apoptosis which is characterized by ruffling of the membrane.

For the next data set, the system named is GBM39 cells (GBM39/Luc). Briefly: Sensitivity to drug and synergy with TTFields. In kind it is cell-based, human. The note with it: for synergy of combination with TTFields: GBM39/Luc; for sensitivity of cells to various concentrations of drug: TTFields for 3 days vs no TTFields.
A further data set relates to human glioblastoma cells. Briefly: Growth inhibition by TTFields in conjunction with compound. The format is cell-based. The text has this:
In this figure, 5-ALA=5-aminolevulinic acid; Ethidium D=ethidium bromide; and FITC=fluorescein isothiocyanate.

The next data set deals with U87-MG/GFP-Luc cells. Briefly: Sensitivity to drug and synergy with TTFields. The format is cell-based, human.
Data set [2] deals with U87-MG cells. Briefly: 5-ALA uptake (PpIX fluorescence) under TTFields, single culture. The format is cell-based, human. As for the experimental part:
Experiments were performed to determine the effects of TTFields on uptake of 5-ALA (as measured by PpIX accumulation and its resultant fluorescence) in glioblastoma cells. Because it is difficult to distinguish the margin between tumor and normal cells using the present 5-ALA bioassay, the measurement of PpIX fluorescence was used to address this issue. Investigations were run to determine whether permeation of 5-ALA through the cellular membrane and into the glioblastoma cells could be increased with TTFields exposure. U87-MG cells were exposed or unexposed to TTFields, each for durations of 6-24 h.
All monovariant statistical comparisons between no TTFields vs. TTFields samples done by Student's t-test for n=3 experiments per time point.

The test system of data set [3] is U87-MG GBM on PCS-201 fibroblast co-cultures. Briefly: 5-ALA uptake (PpIX fluorescence) in glioblastoma-fibroblast co-culture under TTFields. In kind it is cell-based, human.
Data set [4] relates to U87-MG/eGFP-fLuc cells.
Method: U87-MG/eGFP-fLuc cells were seeded on Thermanox glass coverslips, allowed to settle and grow, and then subjected to either TTFields or no TTFields.
To assess the reversibility of the effect of TTFields on cancer cells, U87-MG/eGFP-fLuc cells were subjected to three conditions: (1) No TTFields exposure, standard cell culture conditions (37° C., 95% 02, 5% CO2), (2) TTFields exposure for 24 h and (3) TTFields exposure for 24 h followed by no TTFields exposure for 24 h. The readouts of BLI, PpIX fluorescence (5-ALA product) and Dextran-FITC (4 kDa) fluorescence were acquired. All experimental conditions were done in triplicate.
Briefly, cells in culture were trypsinized via standard protocols and 10,000-50,000 single cells were suspended in 200 or 75 μL of DMEM/10% FBS/1×antibiotic-antimycotic and then were seeded onto the center of a 22 mm or 12 mm diameter glass Thermanox™ coverslips respectively (ThermoFisher Scientific, Waltham, Mass., USA). The cells were incubated overnight in a humidified 95% air/5% CO2 incubator set at 37° C. Once the cells became attached to the coverslip, 2 mL or 1 mL of DMEM/10% FBS/lx antibiotic-antimycotic was added per well of 6-well or 12-well plates, respectively. […]
Data set [5] relates to KR158B murine astrocytoma cell line. Briefly: Bioluminescence imaging of Renilla luciferase-expressing astrocytoma cells under TTFields (coelenterazine substrate). In kind it is cell-based. The note with it: TTFields exposure vs no TTFields. An excerpt: Renilla luciferase activity is not dependent upon ATP and magnesium (as opposed to firefly luciferase). Thus, it is believed that the induction of bioluminescence by TTFields was not due to alterations in endogenous pools of ATP.

In data set [6] the test system is MCF-7 cells, mitoxantrone resistant. Briefly: Intracellular accumulation of mitoxantrone under alternating electric fields. In kind it is cell-based, human. The note with it: 150 kHz, 1.62 V/cm, 23 h, then mitoxantrone 2 μM for 1 h with field; vs no field. The method, then: (§1) The intracellular accumulation of mitoxantrone was then measured.
In data set [7] the test system is MCF-7 human breast adenocarcinoma cells, wild type. Described as above. In kind it is cell-based. The note with it: 150 kHz, 1.62 V/cm, 23 h, then mitoxantrone 2 μM for 1 h with field; vs no field. The method, then: as §1
For data set [8], the system named is U87-MG cells. Briefly: 7-AAD accumulation by flow cytometry under alternating electric fields. The note with it: 300 kHz, 1.62 V/cm RMS, 24 h; 7-AAD introduced 15 minutes prior to cessation of the field (other timings after cessation: no significant increase). The format is cell-based, human. As for the experimental part:
FIG. 7D depicts the results of an experiment to test how quickly the permeability drops back down after cessation of the alternating electric fields. More specifically, 7-Aminoactinomycin D (7-AAD) is a fluorescent chemical compound with a strong affinity for DNA. […] 7-AAD was introduced into samples at five different times: 15 minutes prior to the cessation of the alternating electric field; immediately after cessation of the alternating electric field; and 15, 30, and 60 minutes after cessation of the alternating electric field. In each case, the cells were incubated with 7-AAD for 30 minutes after introduction of the 7-AAD, followed by flow cytometry analysis of the percentage of cells with increased accumulation of the fluorescent 7-AAD for each of the different timings.
After this 15 minute period, alternating electric field application was terminated and the cells were incubated at room temperature for an additional 15 minutes, followed by flow cytometry analysis of the percentage of cells with increased accumulation of the fluorescent 7-AAD for each of the different frequencies.
For orientation: Flow cytometry measures light scatter and fluorescence of single cells or particles in a stream.

In data set [9] the test system is MDA-MB-435 human melanoma cell line cells. Described as above. In kind it is cell-based. The note with it: 150 kHz, 1.62 V/cm, 24 h. As for the experimental part: After this 15 minute period, alternating electric field application was terminated and the cells were incubated at room temperature for an additional 15 minutes.
After this 24 hour period, the alternating electric fields were turned off for 15 minutes, after which the 7-AAD was added. After waiting an additional 15 minutes, the percentage of cells with increased accumulation of the fluorescent 7-AAD was determined using flow cytometry.

The next data set deals with MDA-MB-235 cells. Briefly: Sensitivity to drug and synergy with TTFields. In kind it is cell-based.
For data set [10], the system named is MDA-MB-435 cells, doxorubicin resistant. Briefly: Intracellular accumulation of doxorubicin under alternating electric fields. In kind it is cell-based, human. To be noted: 150 kHz, 1.62 V/cm, 23 h, then doxorubicin 10 μM for 1 h with field; vs no field.
Data set [11] concerns MDA-MB-435 cells, wild type. Described as above. In kind it is cell-based, human. The note with it: 150 kHz, 1.62 V/cm, 23 h, then doxorubicin 10 μM for 1 h with field; vs no field.
The test system of a further data set is MES-SA cells. Briefly: Intracellular accumulation of doxorubicin under 150 kHz alternating electric fields. The format is cell-based. To be noted: 1.62 V/cm RMS, 24 h, doxorubicin 10 μM for last hour, vs untreated with field.
Data set [12] addresses T1, purified firefly luciferase (Photinus pyralis, UniProt P08659).
T1 construct: purchased Sigma Aldrich Inc (St. Louis, Mo.) SRE0045-2 MG
Briefly: Activity of purified firefly luciferase exposed to TTFields. In kind it is biochemical. To be noted: 200 kHz TTFields, 60 minutes after initiation.

Setting [13] is: TTFields for 3 days vs no TTFields.

T1 sequence (P08659 whole entry): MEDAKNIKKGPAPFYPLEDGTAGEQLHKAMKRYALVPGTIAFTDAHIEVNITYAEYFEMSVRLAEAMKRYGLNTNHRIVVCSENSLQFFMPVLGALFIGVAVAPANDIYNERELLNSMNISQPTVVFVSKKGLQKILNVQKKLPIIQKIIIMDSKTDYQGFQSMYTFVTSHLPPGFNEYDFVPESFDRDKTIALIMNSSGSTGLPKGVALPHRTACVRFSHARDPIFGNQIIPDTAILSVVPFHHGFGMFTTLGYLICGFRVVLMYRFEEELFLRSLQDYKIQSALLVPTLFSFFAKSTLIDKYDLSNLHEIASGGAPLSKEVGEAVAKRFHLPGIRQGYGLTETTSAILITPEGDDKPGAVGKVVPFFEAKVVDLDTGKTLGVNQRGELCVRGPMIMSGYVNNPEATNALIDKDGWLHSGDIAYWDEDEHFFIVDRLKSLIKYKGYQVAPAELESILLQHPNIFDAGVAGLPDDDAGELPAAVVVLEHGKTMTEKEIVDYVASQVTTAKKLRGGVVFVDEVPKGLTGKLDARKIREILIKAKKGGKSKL

On to `CC1=C(CO)C(=O)O[C@@H]([C@@H](C)[C@H]2CC[C@H]3[C@@H]4C[C@H]5O[C@]56[C@@H](O)C=CC(=O)[C@]6(C)[C@H]4CC[C@]23C)C1` [Withaferin A], for which the “synergy of combination with TTFields” value in the data set with pcGBM2/GFP-Luc cells, in the data set on GBM39 cells (GBM39/Luc) and with U87-MG/GFP-Luc cells was “synergy was found” throughout. Besides, the “Annexin-V-APC binding to cells (early apoptosis)” value with U87-MG/eGFP-fLuc cells [1] is given as “could be visualized”. Besides, the “growth inhibition in conjunction with TTFields” value in the data set with human glioblastoma cells is on record as “synergistically inhibited”.

As for `NCC(=O)CCC(=O)O` [5-ALA, 5-aminolevulinic acid], the “uptake of 5-ALA (PpIX fluorescence)” value in the data set with U87-MG cells [2] (6 h TTFields vs no TTFields, p=0.047) is on record as “significantly increased uptake”; in the data set on U87-MG cells [2] (24 h TTFields vs no TTFields, p=0.011), “increase was maintained”. Further, in the data set with U87-MG cells [2] (no TTFields vs TTFields 24 h vs TTFields 24 h followed by no TTFields 24 h, FIG. 7B), the “uptake (PpIX fluorescence), reversibility” value was “reversibly increase uptake”. In addition, the “ratio of PpIX fluorescence intensity in U87-MG cells over surrounding PCS-201 fibroblast cells” value in data set [3] (24 h TTFields vs no TTFields, p=0.043) is given as “significantly increased”. In addition, in data set [3] (TTFields-exposed vs unexposed co-cultures, 2, 6, 24 h, p<0.001), the “rate of PpIX fluorescence intensity increase” value is “significantly augmented”.

Regarding `O=C(O)[C@H]1CSC(c2nc3ccc(O)cc3s2)=N1` [D-luciferin], the “permeation of the luciferase substrate through the plasma membrane (bioluminescence)” value in the data set with U87-MG/eGFP-fLuc cells [4] (TTFields exposure vs no TTFields) is listed as “increased permeation”. The “uptake (BLI flux), reversibility” value in the data set with U87-MG/eGFP-fLuc cells [4] (no TTFields vs TTFields 24 h vs TTFields 24 h followed by no TTFields 24 h, FIG. 7A) is recorded as “reversibly increase uptake”.

As to `Oc1ccc(Cc2nc3c(Cc4ccccc4)nc(-c4ccc(O)cc4)cn3c2O)cc1` [coelenterazine], the “permeation of the luciferase substrate through the plasma membrane (bioluminescence)” value in data set [5] was “increased permeation”.

Turning to `O=C1c2c(O)ccc(O)c2C(=O)c2c(NCCNCCO)ccc(NCCNCCO)c21` [mitoxantrone], the “intracellular accumulation of mitoxantrone” value in data set [6] and in data set [7] was “increased” in each case.

Consider `CCc1c2c(nc3ccc(OC(=O)N4CCC(N5CCCCC5)CC4)cc13)-c1cc3c(c(=O)n1C2)COC(=O)[C@]3(O)CC` [Irinotecan], for which, in the data set with GBM39 cells (GBM39/Luc), the “synergy of combination with TTFields” value is given as “synergy was found”. The “sensitivity of cells to various concentrations of drug” value (shortened to “sensitivity of cells”) in the data set with GBM39 cells (GBM39/Luc) (GBM39/Luc cells) is on record as “improves the sensitivity”.

With `O=NN(CCCl)C(=O)NC1CCCCC1` [Lomustine], the “sensitivity of cells” value with pcGBM2/GFP-Luc cells (setting [13]), in the data set with GBM39 cells (GBM39/Luc) (GBM39 cells) and in the data set with U87-MG/GFP-Luc cells (setting [13]) was “improves the sensitivity” in each case.

Turning to `Cc1c2oc3c(C)c(N)cc(C(=O)N[C@@H]4C(=O)N[C@H](C(C)C)C(=O)N5CCC[C@H]5C(=O)N(C)CC(=O)N(C)[C@@H](C(C)C)C(=O)O[C@@H]4C)c3nc-2c(C(=O)N[C@@H]2C(=O)N[C@H](C(C)C)C(=O)N3CCC[C@H]3C(=O)N(C)CC(=O)N(C)[C@@H](C(C)C)C(=O)O[C@@H]2C)c(N)c1=O` [7-AAD, 7-Aminoactinomycin D], the “accumulation of 7-AAD (percentage of cells with increased accumulation)” value in the data set with U87-MG cells [8] was “significant increase”. Moreover, the “percentage of cells with increased accumulation of 7-AAD” value in data set [9] (7-AAD added for last 15 min while field continued) is listed as around 66%; in data set [9] (fields turned off for 15 minutes before 7-AAD was added), around 20%.

Turning to `COc1cccc2c1C(=O)c1c(O)c3c(c(O)c1C2=O)C[C@@](O)(C(=O)CO)C[C@@H]3O[C@H]1C[C@H](N)[C@H](O)[C@H](C)O1` [doxorubicin], the “synergy of combination with TTFields” value in the data set with MDA-MB-235 cells was “Evidence of synergy”. For the same compound, the “sensitivity of cells” value in the data set with MDA-MB-235 cells (setting [13]) is listed as “improves the sensitivity”. Also, the “intracellular accumulation of doxorubicin” value in [10] and in data set [11] was “increased” throughout. Besides, the “increase in intracellular accumulation of doxorubicin” value in the data set with MES-SA cells was “more than 2 ×”.

In the case of “firefly luciferase: purified firefly luciferase enzyme (Sigma Aldrich SRE0045-2 MG)”, the “loss in enzymatic activity” value in [12] is on record as above 1000 fold.

The values are drawn from US11103698B2, “Using alternating electric fields to increase cell membrane permeability” (The Board of Trustees of the Leland Stanford Junior …, priority 2018, dated 2021).
